Here are results for 24 compounds from US10973849B2, “Rhenium complexes and methods of use for treating cancer” (CORNELL UNIVERSITY, priority 2016, dated 2021).

Where two headings read alike, the source gives them in different places.

Series [1] concerns human cervical cancer cells (HeLa). In words: In vitro anticancer activity (MTT) of [Re(CO)3(N—N)(H2O)][OTf] complexes in HeLa cells. The series is classed as cell-based. To be noted: concentration at which cell proliferation is inhibited by 50%, read-out: IC50 of Re—(H2O) Complex. As for the experimental part: (§1) HeLa (cervical cancer) cell line was cultured using Dulbecco's Modified Eagle's Medium (DMEM) supplemented with 10% fetal bovine serum (FBS). A2780 (ovarian cancer) and A2780CP70 (cisplatin-resistant ovarian cancer) cell lines were cultured as monolayers with Roswell Park Memorial Institute (RPMI)-1640 culture media supplemented with 10% fetal bovine serum. All cell lines were grown in a humidified incubator at 37° C. with an atmosphere of 5% CO2. Cells were passed at 80-90% confluence, using trypsin/EDTA. Cells were tested monthly for mycoplasma contamination with the PlasmoTest™ mycoplasma detection kit from InvivoGen.
(§2) All compounds were dissolved in phosphate-buffered saline (PBS, pH 7.4) to prepare a 1-2 mM stock solution. For single dose studies, only HeLa cells were used. For both the single dose and full dose response, all cells were grown to 80-90% confluence, detached with trypsin/EDTA, seeded in 96-well plates at 2000 cells/well for HeLa cells and 4000 cells/well for A2780 and A2780CP70 cells in 100 μL of growth media, and incubated for 24 hours. The medium was removed and replaced with fresh medium (200 μL) containing a single concentration of a rhenium(I) complex or media. The cells were then incubated for 4 hours, and then the cells were dosed with 365 nm for 1 hour (one plate under the same dosing conditions was kept outside the incubator in the dark as a control). After exposure to light, the plates incubated for an additional 44 hours, the medium was removed from the wells, and (3(4,5-dimethylthiazol-2-yl)-2,5-tetrazolium bromide (MTT) in RPMI (200 μL, 1 mg/mL) was added. After 4 hours, the MTT/RPMI solution was removed, and the formazan crystals were dissolved in 200 μL of an 8:1 mixture of DMSO and pH 10 glycine buffer. The absorbance at 570 nm in each well was measured using a BioTek Synergy™ HT plate reader. Cell viability was determined by normalizing the absorbance of the treated wells to untreated wells. All compounds that had less than 50% cell viability were analyzed using a full dose response. The % viability data is an average of three independent experiments with six replicates per concentration. The same procedure was followed as above for the full dose response but instead, after 24 hours, varying concentrations of the desired compounds were added. Cell viability was again determined by normalizing the absorbance of the treated wells to untreated wells The concentration of the compound versus % viability was plotted to produce dose-response curves, which were analyzed using a logistic sigmoid function fit with MagicPlot Pro™ software. The reported IC50 values are the average of three independent experiments with six replicates per concentration level.
The in vitro anticancer activities of these complexes were tested in human cervical cancer cells (HeLa), and the results are provided below in Table 1. […] The Hill-Slope is a quantitative measure of the steepness of the dose-response curve.

Series [2] has as its system wild-type (KB) cancer cells. In words: Cytotoxicity in wild-type KB cancer cells. It is filed as cell-based. As for the experimental part: (§3) The Re complex containing the 2,9-dimethyl phen ligand was also tested in wild-type (KB) and cisplatin-resistant (KBCP20) cancer cells.
Series [3] deals with cisplatin-resistant (KBCP20) cancer cells. In words: Cytotoxicity in cisplatin-resistant KBCP20 cancer cells. The series is classed as cell-based. Particulars: for IC50: cisplatin-resistant cells, read-out: IC50 KBCBP20; for RF (resistance factor): ratio of IC50 values in cisplatin-resistant versus wild-type cell lines. As for the experimental part: as §3
Series [4] concerns HeLa (cervical cancer) cell line. In words: MTT cell viability of phosphino-Re(I) complexes in HeLa cells, dark or 365 nm light. The series is classed as cell-based, human. To be noted: for Single Dose Cell Viability (%) Light / Single Dose Cell Viability (%) Dark: HeLa cells, single concentration; for Single Dose Cell Viability (%) Dark: kept in the dark. The method, then:
as §1, §2

Series [5] concerns A2780 (ovarian cancer) cell line. In words: MTT cell viability of phosphino-Re(I) complexes in A2780 cells, dark or 365 nm light. It is filed as cell-based. The method, then:
as §1, §2

Series [6] relates to A2780CP70 (cisplatin-resistant ovarian cancer) cell line. In words: MTT cell viability of phosphino-Re(I) complexes in A2780CP70 cells, dark or 365 nm light. It is filed as cell-based. The method, then: as §1, §2
Where [7] appears, read: Table 4, HeLa, 365 nm for 1 hour, read-out: IC50 Value (μM) HeLa (light).
The mark [8] stands for this setting: Table 4, HeLa, dark, read-out: IC50 Value (μM) HeLa (dark).
Where [9] appears, read: Table 3, full dose response, 365 nm for 1 hour, read-out: IC50 Value (μM) Light.
[10] abbreviates: Table 3, full dose response, dark, read-out: IC50 Value (μM) Dark.
Setting [11] is: A2780, 365 nm for 1 hour, read-out: IC50 Value (μM) A2780 (light).
The mark [12] stands for this setting: A2780, dark, read-out: IC50 Value (μM) A2780 (dark).
Where [13] appears, read: A2780CP70, 365 nm for 1 hour, read-out: IC50 Value (μM) A2780CP70 (light).
[14] abbreviates: A2780CP70, dark, read-out: IC50 Value (μM) A2780CP70 (dark).

A word on the IC50: it is the concentration needed to halve the response being measured. In the case of `Cc1ccc2ccc3ccc(C)nc3c2n1.O.O=S(=O)([O-])C(F)(F)F.[C-]#[O+].[C-]#[O+].[C-]#[O+].[Re+]` [2,9-dimethyl phen, [Re(CO)3(N—N)(H2O)][OTf]], the IC50 in series [1] turned out to be 0.97 ± 0.21 µM; in series [2], 0.4 µM; in series [3], 2 µM. The “RF (resistance factor)” value in series [3] is given as 5.

Consider `N.N.[Cl][Pt][Cl]` [cisplatin, reference compound], for which the results for the IC50 in series [1], in series [2] and in series [3] were 3 ± 1.2 µM, 0.8 µM and 50 µM, respectively. Besides, the “RF (resistance factor)” value in series [3] is listed as 62.5.

With “Re(CO)2(phen)(DAPTA)(H2O) [DAPTA-phen dicarb (3b)]”, the IC50 in series [4] (setting [7]) and in series [4] (setting [8]) was > 200 µM in each case.

Take Re(CO)3(bpy)(DAPTA) [DAPTA-bpy (9)]: the half-inhibitory concentration (IC50) in series [4] (setting [9]) is 14.9 ± 3.2 µM; in series [4] (setting [10]), > 200 µM.

In the case of Re(CO)3(bpy)(PTA) [PTA-bpy (7)], the “Single Dose Cell Viability (%) Light” value in series [4] (365 nm for 1 hour) was found to be 90.5 ± 4.1%. The “Single Dose Cell Viability (%) Dark” value in series [4] amounted to 97.9 ± 3.7%.

In the case of Re(CO)3(bpy)(THP) [THP-bpy (8)], in series [4] (365 nm for 1 hour), the “Single Dose Cell Viability (%) Light” value stood at 73.1 ± 6.4%. Moreover, the “Single Dose Cell Viability (%) Dark” value in series [4] is listed as 98.9 ± 1.6%.

In the case of “Re(CO)3(dmbpy)(DAPTA) [DAPTA-dmbpy (12)]”, the IC50 in series [4] (setting [9]) was 60.3 ± 18.2 µM; in series [4] (setting [10]), > 200 µM.

Regarding Re(CO)3(dmbpy)(PTA) [PTA-dmbpy (10)], the “Single Dose Cell Viability (%) Light” value in series [4] (365 nm for 1 hour) is on record as 82.5 ± 9.7%. Besides, the “Single Dose Cell Viability (%) Dark” value in series [4] was 94.4 ± 4.9%.

As for Re(CO)3(dmbpy)(THP) [THP-dmbpy (11)], in series [4] (365 nm for 1 hour), the “Single Dose Cell Viability (%) Light” value is 30.7 ± 14.6%. Moreover, in series [4], the “Single Dose Cell Viability (%) Dark” value came to 93.3 ± 6.0%.

On to “Re(CO)3(dmobpy)(DAPTA) [DAPTA-dmobpy (15)]”, for which the IC50 in series [4] (setting [9]) is 26.4 ± 9.2 µM; in series [4] (setting [10]) it was > 200 µM.

With Re(CO)3(dmobpy)(PTA) [PTA-dmobpy (13)], in series [4] (365 nm for 1 hour), the “Single Dose Cell Viability (%) Light” value was 96.0 ± 6.8%. Further, in series [4], the “Single Dose Cell Viability (%) Dark” value amounted to 98.2 ± 3.2%.

On to Re(CO)3(dmobpy)(THP) [THP-dmobpy (14)], for which, in series [4] (365 nm for 1 hour), the “Single Dose Cell Viability (%) Light” value stood at 12.7 ± 5.8%. For the same compound, in series [4], the “Single Dose Cell Viability (%) Dark” value was 57.5 ± 11.0%. The concentration for half-maximal inhibition (IC50) worked out at 68 ± 4.3 µM in series [4] (setting [9]) and 72.6 µM in series [4] (setting [10]).

“Re(CO)3(dmphen)(DAPTA) [DAPTA-dmphen (6)]”: the IC50 in series [4] (setting [9]) is 19.2 ± 2.9 µM; in series [4] (setting [10]) it was > 200 µM.

Turning to Re(CO)3(dmphen)(PTA) [PTA-dmphen (4)], the “Single Dose Cell Viability (%) Light” value in series [4] (365 nm for 1 hour) is 87.0 ± 8.0%. The “Single Dose Cell Viability (%) Dark” value in series [4] is 90.0 ± 8.8%.

In the case of Re(CO)3(dmphen)(THP) [THP-dmphen (5)], the “Single Dose Cell Viability (%) Light” value in series [4] (365 nm for 1 hour) turned out to be 1.3 ± 1.1%. For the same compound, in series [4], the “Single Dose Cell Viability (%) Dark” value is listed as 61.8 ± 6.2%. In addition, the IC50 in series [4] (setting [9]) is 9.6 ± 4.2 µM; in series [4] (setting [10]), > 200 µM.

Take Re(CO)3(phen)(DAPTA) [DAPTA-phen (3)]: the IC50 was > 200 µM in series [4] (HeLa, 365 nm for 1 hour, w/ oxyhemoglobin, read-out: IC50 Value (μM) HeLa (light)); > 200 µM in series [4] (HeLa, dark, w/ oxyhemoglobin, read-out: IC50 Value (μM) HeLa (dark)); 5.9 ± 1.4 µM in series [4] (setting [9]); > 200 µM in series [4] (setting [10]); 5.9 ± 1.4 µM in series [4] (setting [7]); > 200 µM in series [4] (setting [8]). Further, the concentration for half-maximal inhibition (IC50) in series [5] (setting [11]) was 2.2 ± 1.1 µM; in series [5] (setting [12]) it was > 200 µM; in series [6] (setting [13]), 3.2 ± 0.7 µM; in series [6] (setting [14]) it was > 200 µM.

On to Re(CO)3(phen)(PTA) [PTA-phen (1)], for which the “Single Dose Cell Viability (%) Light” value in series [4] (365 nm for 1 hour) was determined as 99.6 ± 0.7%. In series [4], the “Single Dose Cell Viability (%) Dark” value turned out to be 99.4 ± 1.0%. In addition, the half-maximal inhibitory concentration (IC50) in series [4] (setting [9]) was > 200 µM; in series [4] (setting [10]), > 200 µM; in series [4] (setting [7]), > 200 µM; in series [4] (setting [8]), > 200 µM; in series [5] (setting [11]) it was 53.1 ± 2.6 µM; in series [5] (setting [12]) it was > 200 µM. Also, the 50% inhibitory concentration (IC50) in series [6] (setting [13]) and in series [6] (setting [14]) was > 200 µM in each case.

Turning to Re(CO)3(phen)(THP) [THP-phen (2)], the “Single Dose Cell Viability (%) Light” value in series [4] (365 nm for 1 hour) is reported as 2.5 ± 1.8%. Also, the “Single Dose Cell Viability (%) Dark” value in series [4] is 91.8 ± 8.7%. In addition, the IC50 in series [4] (setting [9]) is 26.4 ± 9.2 µM; in series [4] (setting [10]) it was > 200 µM; in series [4] (setting [7]), 26.4 ± 9.2 µM; in series [4] (setting [8]), > 200 µM; in series [5] (setting [11]), 4.6 ± 1.4 µM; in series [5] (setting [12]), > 200 µM. For the same compound, the 50% inhibitory concentration (IC50) in series [6] (setting [13]) was 29.9 ± 7.7 µM; in series [6] (setting [14]), > 200 µM.

As to “[Re(CO)3(N—N)(H2O)][OTf] [4,4′-dimethoxy bpy]”, the IC50 in series [1] stood at 8.8 ± 2.4 µM.

Consider “[Re(CO)3(N—N)(H2O)][OTf] [4,4′-dimethyl bpy]”, for which the IC50 in series [1] came out at 5.8 ± 3.4 µM.

As for “[Re(CO)3(N—N)(H2O)][OTf] [4,4′dimethylester bpy]”, the 50% inhibitory concentration (IC50) in series [1] is 210 ± 30 µM.

Take “[Re(CO)3(N—N)(H2O)][OTf] [4,7-diphenyl phen]”: the IC50 in series [1] came out at 15 ± 7 µM.

With [Re(CO)3(N—N)(H2O)][OTf] [bpy], the concentration for half-maximal inhibition (IC50) in series [1] worked out at 15 ± 5 µM.

In the case of [Re(CO)3(N—N)(H2O)][OTf] [phen], the 50% inhibitory concentration (IC50) in series [1] was found to be 9.7 ± 5.8 µM.
